# Source: PubChem BioAssay (NCI)
# Several values for one entry are separate records, joined by “and”; a condition that tells them apart may be missing. Equal entries are not always repeated.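 Five concentrations, 48 hours, 96-well plates. Here, GI50 denotes the concentration required for 50% inhibition of growth. The concentration for full growth arrest is given as TGI.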
# Tests used:
# Assay in all cases: DTP human tumour cell line panel, 48 h
# [1] = system: HOP-92 NSCLC
# [2] = system: HS 578T breast
# [3] = system: MCF7 breast
# [4] = system: K-562 leukemia
# [5] = system: SR leukemia
# [6] = system: M14 melanoma
# [7] = system: HCC-2998 colon
# [8] = system: UACC-62 melanoma
# [9] = system: NCI-H226 lung
# [10] = system: SF-295 CNS
SMILES,GI50 [1] [µM],TGI [1] [µM],GI50 [2],TGI [2] [µM],GI50 [3],TGI [3],GI50 [4],TGI [4],GI50 [5] [µM],TGI [5] [µM],GI50 [6] [µM],TGI [6] [µM],GI50 [7],TGI [7],GI50 [8] [µM],TGI [8] [µM],GI50 [9],TGI [9],GI50 [10],TGI [10]
COC1CC2C=C(C)/C=C/C=C/C(=O)NC(c3ccccc3)C/C=C/CCC(O)CC(=O)C2=C1O (stereo not given),0.141,0.457,0.393 µM,1.91,0.169 µM,0.776 µM,0.212 µM,1.03 µM,0.0956,0.794,0.31,1.47,0.558 µM,1.94 µM,0.318,1.54,0.43 µM,2.17 µM,0.246 µM,0.788 µM
CCCCNN,,,,> 100,,> 100 µM,,> 100 µM,,> 100,,> 100,,,,> 100,,> 100 µM,,> 100 µM
OCCSCc1ccccc1,,> 100,,> 100,,> 100 µM,,> 100 µM,,> 100,,> 100,,> 100 µM,,> 100,,> 100 µM,,> 100 µM
CCN1C(=S)N(CC)C2C1NC(=S)N2/N=C/C=C/c1ccccc1 (stereo not given),4,20.9,2.11 µM,8.96,0.513 µM,16.4 µM,0.382 µM,14.1 µM,0.347,5.92,0.879,12.9,2.84 µM,16.9 µM,1.37,14.9,6.73 µM,24.4 µM,1.04 µM,11.8 µM
CC/C=C\C[C@H](O)C/C=C1/C(=O)C=C[C@@H]1C/C=C\CCCC(=O)N(C)C,2.56,7.12,4.29 µM,27.6,0.368 µM,12.2 µM,1.02 µM,> 100 µM,0.376,12.3,2.79,11,1.77 µM,3.2 µM,2.2,5.12,2.57 µM,7.84 µM,2.97 µM,11.1 µM
CC(C)(C)NCc1cc(C(C)(C)C)cc(-c2ccc(Cl)cc2)c1O,,28.3,,29,,32.7 µM,,,,40.4,,28.8,,29.6 µM,,32,,,,36.6 µM
O=c1nc(Nc2cccc(Cl)c2)oc2cc(Cl)oc(=O)c12,5.01,19.5,2.81 µM,17.4,4.33 µM,20.9 µM,16.4 µM,> 100 µM,2.88,12.4,8.37,26.9,13.4 µM,27.5 µM,5.79,21.3,17.1 µM,73.6 µM,12.1 µM,43 µM
C=C1C(=O)OC2CC1C(O)C/C(C)=C/CC/C(C)=C/C(O)CC2C (stereo not given),,4.17,,11,,7.44 µM,,> 30.5 µM,,2.61,,9.63,,4.21 µM,,6.1,,24.8 µM,,26.7 µM
Cc1sc(C)c(Cc2c(C)sc(C)c2CCl)c1CCl,,,> 100 µM,> 100,> 100 µM,> 100 µM,23 µM,> 100 µM,> 100,> 100,> 100,> 100,,,,,> 100 µM,> 100 µM,> 100 µM,> 100 µM
CCOC(=O)C(Cc1c[nH]c2ccc(N(CCCl)CCCl)cc12)(NC(C)=O)C(=O)OCC,14.1,250,69.5 µM and 20.9 µM,68.3,2.42 µM and 3.11 µM,26.8 µM and 96.6 µM,22.7 µM and 12.2 µM,57.5 µM and 47.2 µM,1.86,7.14,12.3,116,12.1 µM and 13.4 µM,30.2 µM and 36.4 µM,12.1,26,14.1 µM and 19.4 µM,41.4 µM and 67.9 µM,5.41 µM and 4.2 µM,32 µM and 232 µM
Cn1c(=O)c(Oc2ccccc2F)cc2cnc(NC3CCOCC3)nc21,1.25,22.8,> 25 µM,> 25,> 25 µM,> 25 µM,> 25 µM,> 25 µM,> 25,> 25,> 25,> 25,> 25 µM,> 25 µM,> 25,> 25,> 25 µM,> 25 µM,> 25 µM,> 25 µM
N=C(N=C(N)N)N1CCN(c2ccncc2)CC1,> 1000,> 1000,913 µM,> 1000,> 1000 µM,> 1000 µM,> 1000 µM,> 1000 µM,> 1000,> 1000,> 1000,> 1000,> 1000 µM,> 1000 µM,> 1000,> 1000,> 1000 µM,> 1000 µM,> 1000 µM,> 1000 µM
CCOC(=O)C(=Cc1ccccc1[N+](=O)[O-])C(=O)OCC,3.67,8.8,2.71 µM,11.6,2.52 µM,14.2 µM,3.64 µM,> 100 µM,2.07,30.1,2.95,10.1,3.48 µM,10.7 µM,1.59,3.39,3.26 µM,12.8 µM,5.38 µM,20.1 µM
CC(=O)O[C@H]1CC[C@@]2(C)C(=CC[C@H]3[C@@H]4C/C(=C\c5cccc(OCCN6CCOCC6)c5)[C@H](OC(C)=O)[C@@]4(C)CC[C@@H]32)C1,4.32,16.8,3.07 µM,10.9,10.4 µM,84.5 µM,2.95 µM,12.5 µM,5.47,18.6,5.91,18.9,5.32 µM,17.6 µM,6.1,19.1,17.9 µM,85.9 µM,2.48 µM,10.5 µM
COCCOC(=O)NC(=O)Nc1ccc(/C(=N/O)c2ccc(Cl)cc2)cc1,1.4,44.1,0.157 µM,34.3,0.0989 µM,37.9 µM,0.0633 µM,31.9 µM,0.0546,10.8,0.0843,18.4,0.2 µM,7.04 µM,0.109,15.8,1.14 µM,39.4 µM,0.123 µM,0.559 µM
O=S(=O)(NCC1CCC(CNc2ccc(Cl)cc2)CC1)c1ccc(-c2ccccc2)cc1 (stereo not given),45.6,> 50,12.7 µM,> 50,> 50 µM,> 50 µM,17.4 µM,> 50 µM,> 50,> 50,> 50,> 50,,,> 50,> 50,21.2 µM,> 50 µM,> 50 µM,> 50 µM
CN1CCCN(C)C1c1cc([N+](=O)[O-])ccc1O,,76.6,,67.8,,63.3 µM,,> 100 µM,,59.3,,58.5,,,,44.3,,82.5 µM,,> 100 µM
ClC(Cl)c1nc(-c2cccnc2)n2nc(-c3ccccc3)cc2n1,2.16,5.29,2.5 µM,6.05,,,1.33 µM,> 100 µM,0.348,> 100,1.14,2.79,0.639 µM,2.15 µM,,,,,2.27 µM,6.52 µM
NNc1cccc(/C=C/c2ccccc2)cc1=O,8.71,70.7,18.5 µM,> 100,8.32 µM,> 100 µM,3.13 µM,> 100 µM,3.85,> 100,12.4,44.7,16.8 µM,> 100 µM,5.33,93.1,19.9 µM,> 100 µM,,
N#Cc1c(-c2ccccc2)cc(-c2ccc(Nc3nc(Nc4ccc(Cl)cc4)nc(Nc4ccc(Cl)cc4)n3)cc2)nc1N,1.06,3.86,1.2 µM,6.02,1.56 µM,4.16 µM,2.15 µM,7.59 µM,,,1.79,3.67,7 µM,35.5 µM,5.56,45.4,1.73 µM,3.75 µM,10.3 µM,43.6 µM
CC1=C[C@H]2c3c(c(O)c(O)c4oc5ccccc5c(=O)c34)[C@H](c3cc(O)c(O)c4oc5ccccc5c(=O)c34)[C@H]2C(C)(C)C1,1.39,5.43,0.379 µM,9.89,0.772 µM,11.1 µM,0.22 µM,> 100 µM,0.384,34.4,1.36,5.66,1.87 µM,6.03 µM,0.707,2.33,,,0.443 µM,2.28 µM
COc1cc(/C=C2\CC3C4CC=C5C[C@@H](OC(C)=O)CC[C@]5(C)C4CC[C@]3(C)C2=O)ccc1OCCCn1ccnc1 (stereo not given in full),25.4,> 50,8.26 µM,21.3,9.36 µM,21 µM,9.69 µM,24.7 µM,,,9.28,17.9,14.6 µM,23 µM,8.4,16.5,8.26 µM,17.8 µM,9.22 µM,22.3 µM
COc1ccc(-c2cc(/C=C3\C(=O)Nc4ccc(Cl)cc43)[nH]n2)cc1,,,3.52 µM,22.4,2.43 µM,11.8 µM,2.56 µM,13.1 µM,4.24,20.1,4.02,15.2,9.4 µM,24.2 µM,5.56,18.5,12.1 µM,28.1 µM,3.29 µM,12.8 µM
C[C@]1(CO)[C@H]2CC[C@@]34C=C[C@@](CO)(CC[C@H]3[C@]2(C)CC[C@H]1O)C4,,> 100,,> 100,,> 100 µM,,,,> 100,,> 100,,> 100 µM,,> 100,,> 100 µM,,> 100 µM
O=C(NCCCNc1cc(-c2cn(-c3ccccc3)nc2-c2cccc(O)c2)ccn1)c1ccccc1,1.7,24.5,3.06 µM,48.3,1.74 µM,5.29 µM,,,1.68,5.35,2.56,6.72,1.92 µM,3.69 µM,3.15,12.2,2.72 µM,17.9 µM,1.76 µM,4.81 µM
OCC1OC(n2ccc3c(NO)ncnc32)C(O)C1O (stereo not given),0.154,0.608,0.332 µM,> 24.1,0.13 µM,1.68 µM,0.201 µM,4.53 µM,,,0.077,0.578,0.25 µM,1 µM,0.128,0.326,0.251 µM,,0.144 µM,0.599 µM
N#Cc1cnc2cc(OC[C@@H](O)CO)c(NC(=O)CC3CSSC3)cc2c1Nc1ccc(OCc2cccc(F)c2)c(Cl)c1,0.919,2.06,0.105 µM,0.282,0.0857 µM,0.182 µM,0.0945 µM,0.207 µM,0.0408,0.275,0.0828,0.175,0.164 µM,0.506 µM,0.38,1.08,,,0.88 µM,1.78 µM
CC(C)c1ccc(/C(C(=O)O)=C(\O)C(=O)O)cc1,,> 100,,> 100,,> 100 µM,,> 100 µM,,> 100,,> 100,,,,> 100,,> 100 µM,,> 100 µM
C=C1C(=O)O[C@H]2[C@H]1CC/C(COC(=O)NCc1ccc(Cn3c(=O)sn(CCCCl)c3=O)cc1)=C\CC[C@@]1(C)O[C@@H]21,1.1,2.47,5.64 µM,49,1.71 µM,4.54 µM,0.726 µM,> 100 µM,,,1.93,4.5,7.83 µM,21.4 µM,1.44,2.8,16.6 µM,42.6 µM,17.7 µM,31.7 µM
